Results reported in patent US20140309295A1, “ANTIEPILEPTIC, HYPOCHOLESTEROLEMIC AND NEUROPROTECTIVE COMPOUND” (NEURON BIOPHARMA, S.A., priority 2009, published 2014).

Experiments:
[1] = Lethality by constant exposure in water (4 days) in adult zebrafish (OECD 203); assay type: in vivo; details: zebrafish, in vivo; 4 days of continuous treatment in water
Experimental: (§1) The object of this assay is to determine the acute lethal toxicity of a substance on freshwater fish. Acute toxicity is the distinguishable adverse effect induced in an organism as a result of the exposure to a given substance for a short time period (days).
(§2) The deaths of the animals under study during the entire time of the assay were recorded as a toxicity parameter.
(§3) To that end, the fish that survived the treatment were sacrificed at 4 days post-treatment (previously anesthetized) and the samples (whole fish) were included in paraffin. The hematoxylin-eosin staining was subsequently performed in order to conduct the histopathological studies, obtaining a minimum of 6 longitudinal sections per animal, for the purpose of collecting different study areas of the same organ. The following organs were studied: brain, kidney, pancreas, intestine, eye, gills, ovary, testicle, muscle and liver.

adult zebrafish = assay: as above; assay type: in vivo; details: for histopathology: ovary / Mortality (dead animals/total): 4 days
Experimental: as §1, §2, §3

seladin-1/DHCR24 gene = seladin-1/DHCR24 gene expression in brain of wild-type mice; assay type: in vivo; details: 50 mg/kg oral, 4 hours, male C57BL6 mice
Experimental: A control group received only the vehicle, which consisted of 0.25% carboxy methylcellulose in physiological saline. 4 hours after the oral administrations, the animals were sacrificed under gas anesthesia with isoflurane and the brains, previously perfused with PBS, were removed and immediately afterwards frozen in liquid nitrogen. Subsequently, the total RNA of the brain was extracted by means of the High Pure RNA Isolation kit (Roche) and the amount and quality of the RNA were analyzed by means of spectrophotometry (Infinite 200 with NanoQuant, Tecan) and viewing of the 18S and 28S bands by means of electrophoresis. The RT-PCR was performed by means of two steps, first, the mRNA was changed to cDNA using the RNA to cDNA kit (Applied Biosystem) and the gene expression was subsequently analyzed by means of TagMan probes using the validated probes Mn00519071_m1 for seladin-1/DHCR24 and Hs99999901_s1 for 18S (used to normalize the results) in the 7500 Fast Real-Time PCR System equipment (Applied Biosystem). The relative amount of the gene expression was determined by using the ΔΔCt method with the SDS v2.1.1 software (Applied Biosystem); the expression of 18S was used to normalize the measurement.

in vitro = details: PAMPA, pH 7.4
ApoB100 mice = assay: Hypocholesterolemic effect, oral three months, endogenous hyperlipidemia model; assay type: in vivo; details: 50 mg/kg oral, 3 months
Experimental: All the animals included for the experimental process were 6-month old female mice. The experiments were conducted strictly following the Guidance on the Operation of Animals (Scientific Procedures, Act. 1986). The animals had their respective quarantine period and were treated with maximum precaution to minimize possible contaminations for inoculations and handling.
After a conditioning to the diet, 50 mg/kg of NST0021 or NST0037 were orally administered to the mice for 3 months, three times a week, using in both cases 0.25% carboxy methylcellulose in physiological saline as a vehicle. The control group received this same vehicle. Before starting the treatments and at one, two and three months of starting them, retro-orbital blood extractions after fasting for 16 hours were carried out. The plasma was obtained from said blood, in which the total cholesterol (TC), free cholesterol (FC), cholesterol (EC), HDL-c, LDL-c, VLDL-c levels were evaluated by enzymatic and spectrophotometric techniques.

For `CCC(CC)C(=O)O[C@H]1C[C@@H](C)C=C2C=C[C@H](C)[C@H](CC[C@@H]3C[C@@H](O)CC(=O)O3)[C@H]21` [NST0037, (1S,2S,6R,8S,8aR)-1,2,6,7,8,8a-hexahydro-3,7-dimethyl-8-[2-[(2R,4R)-tetrahydro-4-hydroxy-6-oxo-2H-pyran-2-yl]ethyl]-1-naphthalenyl-2-ethyl-butyrate], which LD50 at 4 days [1] is on record?
The LD50 at 4 days was > 100 mg/kg.

And the “histopathology: ovary” value (adult zebrafish; 30 mg/kg)?
The value was “not being observed”.

And the “histopathology: ovary” value (adult zebrafish; 100 mg/Kg)?
The value was “presented ovarian damage”.

What about the “Mortality (dead animals/total)” value (adult zebrafish; Dose 1 mg/kg) of the same compound?
The value was 0/7.

What about the “Mortality (dead animals/total)” value (adult zebrafish; Dose 3.2 mg/kg) of the same compound?
The value was 0/7.

And the “Mortality (dead animals/total)” value (adult zebrafish; Dose 10 mg/kg)?
The value was 0/7.

And the “Mortality (dead animals/total)” value (adult zebrafish; Dose 32 mg/kg)?
Its value is 0/7.

And the “Mortality (dead animals/total)” value (adult zebrafish; Dose 100 mg/kg)?
The value was 1/7.

What about the percentage of mortality (adult zebrafish; day 4 post-treatment (100 mg/kg group)) of the same compound?
The percentage of mortality was 14%.

And the “seladin-1/DHCR24 gene expression in brain” value (seladin-1/DHCR24 gene)?
Its value is “increased the gene expression”.

What about the Papp at 18 h, 100 μM (in vitro) of the same compound?
Its Papp at 18 h, 100 μM is 3.1 ×10⁻⁶ cm/s.

And the “FC and EC levels” value (ApoB100 mice)?
The value was “significant reduction of both FC and EC”.

And the HDL-c levels (ApoB100 mice)?
Its HDL-c levels is “increase the HDL-c levels”.

What about the “LDL-c levels vs simvastatin” value (ApoB100 mice) of the same compound?
The value was “reduced to a greater extent”.

And the cholesterol fractions (ApoB100 mice; three times a week, female apoB100 mice)?
Its cholesterol fractions is “reduced the different cholesterol fractions”.
